Test: Solubility measurement of charge control agent in methanol
Assay type: physicochemical
Conditions: stirred 1 hour at 50° C., cooled to room temperature, 0.1 μm-filter, absorbance vs 20 ppm standard
Method: The solubility of the charge control agent may be measured in the following manner.
<Solubility measurement of charge control agent>
2 g of a charge control agent is weighed and placed in a 300 ml Erlenmeyer flask to which 100 ml of methanol is added. The system is heated to 50° C. under stirring and the stirring is further continued for 1 hour (when all the charge control agent is dissolved, the charge control agent is further added successively at an increment of 2 g each under continued stirring). Then, the system is cooled to room temperature and the insoluble charge control agent is removed by a 0.1 μm-filter to measure the absorbance (A) of the solution at a maximum absorption wavelength by using a spectrophotometer.
wherein I denotes a transmitted light intensity through a solution, I0 denotes a transmitted light intensity through a solvent (=methanol), ε0 denotes an absorption coefficient, C denotes the concentration of the charge control agent, and d denotes the thickness of the solution for the absorbance measurement.

Row | SMILES | SMeOH (solubility in methanol) | SMeOH (solubility in methanol) (listed as Azo-type iron complex (1)) [g/100 ml)]
1 | O=C(Nc1cccc([N+](=O)[O-])c1)c1cc2ccccc2c2c1[O][Fe]1([O]c3ccc(Cl)cc3/N=N/2)[O]c2ccc(Cl)cc2/N=N/c2c(c(C(=O)Nc3cccc([N+](=O)[O-])c3)cc3ccccc23)[O]1 [Complex (3)] | SMeOH = 0.71 g/100 ml) | –
2 | O=C(Nc1ccccc1)c1cc2ccccc2c2c1[O][Fe]1([O]c3ccc(Cl)cc3N=N2)[O]c2ccc(Cl)cc2N=Nc2c(c(C(=O)Nc3ccccc3)cc3ccccc23)[O]1 (stereo not shown) [Complex (1)] | SMeOH = 0.87 g/100 ml) | 0.87
3 | O=C(Nc1cccc([N+](=O)[O-])c1)c1cc2ccccc2c2c1[O][Fe]1([O]c3c(cc(Cl)cc3[N+](=O)[O-])/N=N/2)[O]c2c(cc(Cl)cc2[N+](=O)[O-])/N=N/c2c(c(C(=O)Nc3cccc([N+](=O)[O-])c3)cc3ccccc23)[O]1 [Complex (4)] | SMeOH = 0.65 g/100 ml) | –
4 | Cc1ccccc1NC(=O)c1cc2ccccc2c2c1[O][Fe]1([O]c3cc(Cl)c([N+](=O)[O-])cc3/N=N/2)[O]c2cc(Cl)c([N+](=O)[O-])cc2/N=N/c2c(c(C(=O)Nc3ccccc3C)cc3ccccc23)[O]1 [Complex (5)] | SMeOH = 0.65 g/100 ml) | –
5 | Cc1ccccc1NC(=O)c1cc2ccccc2c2c1[O][Fe]1([O]c3ccccc3N=N2)[O]c2ccccc2N=Nc2c(c(C(=O)Nc3ccccc3C)cc3ccccc23)[O]1 (stereo not shown) [Complex (6)] | SMeOH = 0.76 g/100 ml) | –
6 | O=C(Nc1ccccc1)c1cc2ccccc2c2c1[O][Fe]1([O]c3c(Cl)cc(Cl)cc3N=N2)[O]c2c(Cl)cc(Cl)cc2N=Nc2c(c(C(=O)Nc3ccccc3)cc3ccccc23)[O]1 (stereo not shown) [Complex (2)] | SMeOH = 0.75 g/100 ml) | –

Reference: patent publication US6365314B1, “Toner for developing electrostatic image, image forming method and process cartridge” (Canon Kabushiki Kaisha, priority 1994, dated 2002)
